Measured values as given in US20200010482A1, “INHIBITORS OF BETA SECRETASE” (Janssen Pharmaceutica NV, priority 2017, published 2020).

Legend:
BACE1 = molecular target: T1, BACE1 (Homo sapiens, UniProt P56817); test: BACE1 biochemical FRET based assay; settings: recombinant BACE1 0.04 μg/ml, 20 μM substrate, 450 min, pH 5.0; for IC50: read-out: BIOCHEMICAL FRET BASED ASSAY pIC50 (converted)
T1 construct: recombinant BACE1 protein in a final concentration of 0.04 μg/ml
Procedure, shortened: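 Recombinant BACE1 (0.04 μg/ml final) incubated 450 min at room temperature with 20 μM Mca/Dnp-labelled 13-mer Swedish APP peptide in 50 mM citrate pH 5.0, 0.05% PEG. Fluorescence (ex 320/em 405 nm) at 450 min minus early baseline Tx; IC50 fitted from % Controlmin versus concentration.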

[1] = system: Abeta 1-42 produced and secreted by SKNBE2 cells expressing hAPP695; test: Cellular αLisa assay in SKNBE2 cells, Abeta 1-42; format: cell-based, human; settings: SKNBE2 cells expressing hAPP695, 18 hours incubation; for IC50: Homo sapiens, SKNBE2, 18 h, read-out: CELLULAR αLISA ASSAY IN SKNBE2 CELLS ABETA 42 PIC50 (converted)
Procedure, shortened: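 Human neuroblastoma SKNBE2 cells expressing wild-type hAPP695 treated with compound for 18 h; secreted Abeta total or Abeta 1-42 in medium measured by sandwich αLisa (AbN/25 with Ab4G8 or cAb42/26), read after 1 h. IC50 from least-squares fit of % Controlmin, normalised to untreated and no-antibody controls.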

BACE2 = molecular target: T2, BACE2 (Homo sapiens, UniProt Q9Y5Z0); test: BACE2 biochemical FRET based assay; settings: recombinant BACE2 0.4 μg/ml, 10 μM substrate, 450 min, pH 5.0; for IC50: read-out: BIOCHEMICAL FRET BASED ASSAY pIC50 (converted)
T2 construct: recombinant BACE2 protein in a final concentration of 0.4 μg/ml
T2 sequence (Q9Y5Z0 63-518): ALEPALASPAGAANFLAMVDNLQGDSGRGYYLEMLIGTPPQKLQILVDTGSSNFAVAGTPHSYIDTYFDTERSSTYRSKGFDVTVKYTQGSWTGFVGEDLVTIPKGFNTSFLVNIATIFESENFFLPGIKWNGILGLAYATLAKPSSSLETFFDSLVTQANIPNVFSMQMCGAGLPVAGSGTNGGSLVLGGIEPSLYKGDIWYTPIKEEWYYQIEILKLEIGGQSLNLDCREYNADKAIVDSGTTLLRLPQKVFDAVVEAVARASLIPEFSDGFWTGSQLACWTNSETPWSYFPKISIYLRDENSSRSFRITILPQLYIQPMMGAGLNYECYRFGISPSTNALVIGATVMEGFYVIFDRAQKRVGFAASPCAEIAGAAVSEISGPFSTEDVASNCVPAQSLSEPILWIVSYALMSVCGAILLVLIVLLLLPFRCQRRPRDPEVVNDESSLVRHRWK
Procedure, shortened: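 Recombinant enzyme (0.4 μg/ml final) incubated 450 min at room temperature with 10 μM Mca/Dnp-quenched Swedish-mutant APP peptide in 50 mM citrate pH 5.0, 0.05% PEG, no DMSO. Fluorescence (ex 320/em 405 nm) change from T0 to T450 normalised to no-enzyme and enzyme controls; IC50 from least-squares curve fit.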

T1 sequence (P56817 46-501): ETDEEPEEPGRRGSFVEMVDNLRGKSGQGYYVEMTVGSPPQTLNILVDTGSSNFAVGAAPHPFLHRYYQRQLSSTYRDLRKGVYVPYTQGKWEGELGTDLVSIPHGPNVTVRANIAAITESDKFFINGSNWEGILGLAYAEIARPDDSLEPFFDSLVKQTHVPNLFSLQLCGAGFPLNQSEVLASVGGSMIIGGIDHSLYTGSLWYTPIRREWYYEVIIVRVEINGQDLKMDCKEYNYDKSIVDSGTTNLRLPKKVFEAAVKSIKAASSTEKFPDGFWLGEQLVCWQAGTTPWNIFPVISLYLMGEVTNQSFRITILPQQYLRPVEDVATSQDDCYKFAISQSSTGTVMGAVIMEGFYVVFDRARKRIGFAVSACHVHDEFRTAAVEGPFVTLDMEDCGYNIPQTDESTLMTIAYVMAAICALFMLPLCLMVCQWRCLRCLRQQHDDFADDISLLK

`COc1ncc(C#N)c2c1C[C@]1(c3ccccc3F)N=C(N)SC[C@@H]1C2` (racemic) [Compound 22] was tested. Which IC50 (BACE1) did it give?
Its IC50 is 0.178 µM.

And the IC50 [1]?
Its IC50 is 0.0417 µM.

And the IC50 (BACE2)?
The IC50 was 0.24 µM.

How did the IC50 (BACE1) turn out when `COC/C=C/c1cnc(OC)c2c1C[C@H]1CSC(N)=N[C@@]1(c1ccc(F)cc1F)C2` [Compound 47] was run?
Its IC50 is 0.0102 µM.

And the IC50 [1]?
Its IC50 is 0.00562 µM.

What about the IC50 (BACE2) of the same compound?
Its IC50 is 0.00661 µM.

Which results are given for `COc1ncc(-c2ccccc2)c2c1C[C@]1(c3ccc(F)cc3F)N=C(N)SC[C@@H]1C2` [Compound 49]?
BIOCHEMICAL FRET BASED ASSAY pIC50 (BACE1): 8.81; CELLULAR αLISA ASSAY IN SKNBE2 CELLS ABETA 42 PIC50 [1]: 8.56; BIOCHEMICAL FRET BASED ASSAY pIC50 (BACE2): 8.43

Which results are given for `COc1ncc(-c2ccccc2C)c2c1C[C@]1(c3ccc(F)cc3F)N=C(N)SC[C@@H]1C2` [Compound 55]?
BIOCHEMICAL FRET BASED ASSAY pIC50 (BACE1): 8.45; CELLULAR αLISA ASSAY IN SKNBE2 CELLS ABETA 42 PIC50 [1]: 7.99; BIOCHEMICAL FRET BASED ASSAY pIC50 (BACE2): 7.4

For `COc1ncc(-c2cc(Cl)ccc2C)c2c1C[C@]1(c3ccc(F)cc3F)N=C(N)SC[C@@H]1C2` [Compound 60], which “BIOCHEMICAL FRET BASED ASSAY pIC50” value (BACE1) is on record?
The value was 8.26.

What about the “CELLULAR αLISA ASSAY IN SKNBE2 CELLS ABETA 42 PIC50” value [1] of the same compound?
Its value is 7.25.

What about the “BIOCHEMICAL FRET BASED ASSAY pIC50” value (BACE2) of the same compound?
Its value is 6.9.

With `COc1cc(C)c(-c2cnc(OC)c3c2C[C@H]2CSC(N)=N[C@@]2(c2ccc(F)cc2F)C3)cn1` [Compound 106] as the compound, how does the IC50 (BACE1) read?
Its IC50 is 0.00871 µM.

And the IC50 [1]?
The IC50 was 0.00589 µM.

What about the IC50 (BACE2) of the same compound?
Its IC50 is 0.195 µM.
